Data on five compounds can be found in PMC12196494, “Application of Solvent Evaporation to Generate Supersaturated Lipid-Based Formulations: Investigation of Drug Load and Formulation Quality” (Pharmaceutics, 2025).

Data set [1] in a line: Solubility studies in lipid-based formulations (MCT, LCM) at different temperatures. The class given is physicochemical. Particulars: for solubility: oil or lipid, thermodynamic from solid, n = 3, mean ± SD. Here is the method:
In the case that the added compound was dissolved during incubation, more compound was added. After incubation, the samples were centrifuged in an Eppendorf centrifuge 5430R (Hamburg, Germany) for 30 min at 17,500 rpm (=30,130 rcf) at either 20 °C (samples incubated at ambient temperature), 37 °C (samples incubated at 37 °C), or 40 °C (samples incubated at 60 °C). The supernatant was diluted and further analyzed by UPLC-UV, as described below.
The supernatants obtained from the solubility studies were diluted 1:50 with tetrahydrofuran, which was further diluted 1:100 with acetonitrile. […] This final dilution was analyzed by using an Acquity (UPLC™) H-class system composed of a quaternity solvent manager, a photodiode array (PDA) detector, a sample manager, and the Empower® software (version 3.0) for data processing. For the chromatographic analysis, a reversed-phase Waters Acquity BEH C18 with a 50 mm × 2.1 mm column (particle size 1.7 μm) including a precolumn (Waters Acquity BEH C18, 5 mm * 2.1 mm, particle size 1.7 μm) (Waters, Milford, CT, USA) was used.
The statistical analysis was performed using GraphPad Prism, Version 9.5.1.

For data set [2] the following is noted: for Stability: celecoxib in LCM.
For data set [3] the following is noted: MCT and LCM formulations, polarized light, Figure 1A-D.
Text: For selected samples where precipitation was visible, a few droplets (enough volume to cover the area of a quartz microscope slide covered by a cover slip) were taken from the middle of the vial using a plastic pipette, and the crystallinity was confirmed by using a ZEISS Axio Vert.A1 microscope with polarized light function (Jena, Germany).
The conditions of data set [4]: cited from earlier work.
For data set [5] the following is noted: cited from earlier work; for Drug load, % of the equilibrium solubility at 37 °C: supersaturated type I and type II LBFs.
Data set [6] relates to mice. More on the design: method as in PMID 33387565. Particulars: doses of 1000–4000 ppm DCM; cited from earlier work.
Data set [7] concerns rats. Also noted: method as in PMID 33387565. Particulars: doses of 1000–4000 ppm DCM; cited from earlier work.
The subject of data set [8] is hamsters. More on the design: method as in PMID 33387565. Particulars: doses of 1000–4000 ppm DCM; cited from earlier work.

Molecules are shown by their SMILES. Converted amounts (≈) assume the structure as drawn. Like-named read-outs stand apart in the source and are kept apart here.

Consider `Cc1ccc(-c2cc(C(F)(F)F)nn2-c2ccc(S(N)(=O)=O)cc2)cc1` [Celecoxib, celecoxib], for which the “Ratio of solubility 60 °C/Ambient temperature” value in data set [1] (LCM) is listed as 2.38 ± 0.04; in data set [1] (MCT), 1.85 ± 0.03. For the same compound, the solubility in data set [1] (long-chain monoglyceride (Maisine CC), Maisine CC, 37 °C, read-out: Solubility LCM) was 15.57 ± 0.09 mg/mL (≈ 40.8 mM); in data set [1] (long-chain monoglyceride (Maisine CC), Maisine CC, 60 °C, read-out: Solubility LCM), 24.6 ± 0.36 mg/mL (≈ 64.4 mM); in data set [1] (long-chain monoglyceride (Maisine CC), Maisine CC, ambient temperature (~21 °C), read-out: Solubility LCM), 10.34 ± 0.08 mg/mL (≈ 27.1 mM); in data set [1] (medium-chain triglyceride (Labrafac Lipophile WL1349), medium-chain triglyceride, 37 °C, read-out: Solubility MCT), 11.3 ± 0.05 mg/mL (≈ 29.6 mM); in data set [1] (medium-chain triglyceride (Labrafac Lipophile WL1349), medium-chain triglyceride, 60 °C, read-out: Solubility MCT), 14.3 ± 0.25 mg/mL (≈ 37.5 mM); in data set [1] (medium-chain triglyceride (Labrafac Lipophile WL1349), medium-chain triglyceride, ambient temperature (~21 °C), read-out: Solubility MCT), 7.72 ± 0.16 mg/mL (≈ 20.2 mM). Moreover, the “Supersaturation ratio between 60 °C and ambient temperature” value in data set [1] (range over MCT and LCM) is listed as 1.85–2.38. In addition, the “Drug load relative to the solubility at ambient temperature” value in data set [1] (supersaturation induced by heat (60 °C)) is recorded as 238%; in data set [2] (solvent-based approach, DCM evaporation), “up to 475%”. Moreover, the Precipitation entry in data set [2] (celecoxib content of 371% or higher, both vehicles, stored at ambient) is “visible precipitation already within a timeframe of a few days”. Further, the Stability in data set [2] (DCM 1 + 2, stored at ambient) fell in the range of 7 to 14 days; in data set [2] (DCM 1 + 4, stored at ambient, n = 1) it was 7 to 14 days. Moreover, the “Solid state of the precipitate from the formulations” value in data set [3] is listed as “crystalline”. The “log P” value in data set [4] is reported as 4.3. Moreover, the Time to precipitation in data set [5] (heat-induced supersaturated type I and type II LBFs, in most cases) is given as at most 14 days. Besides, the “Drug load, % of the equilibrium solubility at 37 °C” value in data set [5] is given as at most 136%.

As for `CC(C)OC(=O)C(C)(C)Oc1ccc(C(=O)c2ccc(Cl)cc2)cc1` [Fenofibrate, fenofibrate], the “Time of storage to crystallization” value in data set [5] (heat-induced supersaturated LBF of MCT and phospholipids, prepared at 65 °C, stored at 20–23 °C) is “nine weeks”.

Turning to `ClCCl` [DCM, dichloromethane], the “Risk for malignant tumors” value in data set [6] was “increased risk for malignant tumors”; in data set [7], “not in rats and hamsters”; in data set [8], “not in rats and hamsters”.

Turning to `C(=C\c1ccccc1)/CN1CCN(C(c2ccccc2)c2ccccc2)CC1` [cinnarizine], in data set [5], the “Drug load, % of the equilibrium solubility at 37 °C” value is on record as “up to 138%”.

In the case of `CC(C)Cc1ccc(C(C)C(=O)O)cc1` (stereo not drawn) [ibuprofen], the Time stable result in data set [5] (some ibuprofen-loaded solid LBFs) is listed as “up to 9 months”.

In general, solubility refers to the concentration that dissolves in the medium under given conditions. The log P is a log measure of how a compound divides between an organic and an aqueous phase.
